The results in this text go back to patent US20240336594A1, “SIX-MEMBERED ARYL OR HETEROARYL AMIDES, AND COMPOSITION AND USE THEREOF” (BETTA PHARMACEUTICALS CO., LTD, priority 2021, published 2024).

The assay deals with T1, MALT1 (Homo sapiens, UniProt Q9UDY8).
T1 sequence (Q9UDY8 1-824): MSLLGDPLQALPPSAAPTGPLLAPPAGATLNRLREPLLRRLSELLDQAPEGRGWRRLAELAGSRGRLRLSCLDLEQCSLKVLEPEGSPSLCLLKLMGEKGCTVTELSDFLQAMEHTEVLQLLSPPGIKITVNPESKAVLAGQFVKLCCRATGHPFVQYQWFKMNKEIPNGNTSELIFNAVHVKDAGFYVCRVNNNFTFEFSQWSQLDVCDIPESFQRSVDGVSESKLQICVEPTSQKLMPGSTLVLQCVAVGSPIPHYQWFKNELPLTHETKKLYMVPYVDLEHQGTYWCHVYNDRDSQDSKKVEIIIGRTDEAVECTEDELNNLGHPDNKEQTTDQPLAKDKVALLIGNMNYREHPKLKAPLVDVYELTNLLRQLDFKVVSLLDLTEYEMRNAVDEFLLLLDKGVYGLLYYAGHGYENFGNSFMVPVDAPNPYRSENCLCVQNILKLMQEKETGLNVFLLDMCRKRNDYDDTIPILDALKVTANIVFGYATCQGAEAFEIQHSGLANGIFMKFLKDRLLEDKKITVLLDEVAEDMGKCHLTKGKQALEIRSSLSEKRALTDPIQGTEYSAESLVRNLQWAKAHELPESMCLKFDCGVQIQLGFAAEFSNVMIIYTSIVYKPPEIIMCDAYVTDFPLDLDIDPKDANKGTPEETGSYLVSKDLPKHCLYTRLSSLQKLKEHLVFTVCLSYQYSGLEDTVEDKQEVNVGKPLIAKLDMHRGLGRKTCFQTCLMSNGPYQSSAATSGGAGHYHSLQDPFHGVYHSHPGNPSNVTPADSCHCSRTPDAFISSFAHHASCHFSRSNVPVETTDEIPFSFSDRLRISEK
The assay can be described thus: MALT1 protease inhibition assay (AMC-labeled peptide, fluorescence 360/460). The format is biochemical. Particulars: substrate Ac-LRSR-AMC, 15 min preincubation, 90 min at 25° C. On the procedure:
Test compounds of the present invention (in 100% DMSO) were spotted into a 384-well dilution plate and serially diluted to the required concentrations with DMSO. Then, 0.2 μL of the test compounds were transferred into a new 384-well reaction plate by Echo following centrifugation. The MALT enzyme and its substrate, AMC-labeled peptide, were prepared in 1× protease buffer to yield 2× enzyme solution and 2× peptide solution. Subsequently, 10 μL of 2× enzyme solution was added into the 384-well reaction plate, incubating with the test compounds for 15 minutes at 25° C. After that, 10 μL of 2× peptide solution was added into the plate, continuing to incubate for 90 minutes at 25° C. The plate was then placed on an Envision multifunctional microplate reader to collect raw data, which would be converted into inhibition rate:
Inhibition rate %=(max−sample)/(max−min)*100%. • “max” values were measured using the reaction with enzyme but no compound treated, while “min” values were generated from control wells containing assay buffer without enzyme.
Curve fitting was done with Graphpad Prism software to determine the IC50 values. The specific experimental operations are as follows:
58.82 g Na Citrate·2H2O powder was added into 140 mL ddH2O and mixed in a 37° C. water bath. Once there were no visible particles, the remaining solutions were added successively with continuous stirring for 10 minutes. The final volume was adjusted to 200 mL. The buffer was stored at room temperature. DTT was added before use.
• 1) All test compounds were diluted from 10 mM stock solution into 1 mM in a 384 well dilution plate (labcyte, PP-0200); • 2) Ten various concentrations of the diluted compound solution above were obtained by serial dilution at an equal ratio of 1:3; • 3) 0.2 μL DMSO was transferred to two empty wells of the 384 reaction plate as blank controls without compound and enzyme respectively; • 4) 0.2 μL of the test compound at different concentrations was also transferred into the 384 reaction plate by Echo, with two duplicate wells for each concentration, then the plate was centrifuged at 1000 rpm for 1 min.
• 1) The MALT1 protease and AMC-labeled peptide was prepared in 1× protease buffer to obtain 2× enzyme solution and 2× peptide solution. 10 μL of 2× enzyme solution was added into the 384-well reaction plate. The plate was centrifuged at 1000 rpm for 1 min and incubated for 15 min at 25° C. • 2) 10 μL of 2× peptide solution was then transferred to the 384 reaction plate, and the plate was centrifuged at 1000 rpm for 1 min and incubate for 90 min at 25° C.
`Nc1cc(F)ccc1-c1cc(Cl)c(C(=O)Nc2cnc(C(=O)NCCOC(F)(F)F)c(Cl)c2)cc1F` [Example A459, 5-(2′-amino-5-chloro-2,4′-difluoro-[1,1′-biphenyl]-4-carboxamido)-3-chloro-N-(2-(trifluoromethoxy)ethyl)picolinamide] came in with a half-inhibitory concentration (IC50) of 100 to 500 nM. The same measure for `Nc1cc(F)ccc1-c1cc(Cl)c(C(=O)Nc2cnc(-n3nccn3)c(Cl)c2)cc1N` [Example A460, 2,2′-diamino-5-chloro-N-(5-chloro-6-(2H-1,2,3-triazol-2-yl)pyridin-3-yl)-4′-fluoro-[1,1′-biphenyl]-4-carboxamide]: 10 to 100 nM; for `Nc1cc(F)ccc1-c1cc(Cl)c(C(=O)Nc2cnc(C(=O)NCCF)c(Cl)c2)cc1F` [Example A461, 5-(2′-amino-5-chloro-2,4′-difluoro-[1,1′-biphenyl]-4-carboxamido)-3-chloro-N-(2-fluoroethyl)picolinamide]: 10 to 100 nM. The same measure for `Cc1nnc(CNC(=O)c2ncc(NC(=O)c3cc(F)c(-c4ccc(F)cc4N)cc3Cl)cc2Cl)o1` [Example A462, 5-(2′-amino-5-chloro-2,4′-difluoro-[1,1′-biphenyl]-4-carboxamido)-3-chloro-N-((5-methyl-1,3,4-oxadiazol-2-yl)methyl)picolinamide]: 10 to 100 nM; for `Nc1cc(F)ccc1-c1cc(Cl)c(C(=O)Nc2cnc(C(=O)NCc3nc[nH]n3)c(Cl)c2)cc1F` [Example A463, N-((1H-1,2,4-triazol-3-yl)methyl)-5-(2′-amino-5-chloro-2,4′-difluoro-[1,1′-biphenyl]-4-carboxamido)-3-chloropicolinamide]: 10 to 100 nM; for `CCSCCNC(=O)c1ncc(NC(=O)c2cc(F)c(-c3ccc(F)cc3N)cc2Cl)cc1Cl` [Example A464, 5-(2′-amino-5-chloro-2,4′-difluoro-[1,1′-biphenyl]-4-carboxamido)-3-chloro-N-(2-(ethylthio)ethyl) picolinamide]: 10 to 100 nM. As for `NC(=O)CNC(=O)c1ncc(NC(=O)c2cc(F)c(-c3ccc(F)cc3N)cc2Cl)cc1Cl` [Example A465, N-(2-amino-2-oxoethyl)-5-(2′-amino-5-chloro-2,4′-difluoro-[1,1′-biphenyl]-4-carboxamido)-3-chloropicolinamide], the IC50 is 10 to 100 nM. In turn, `N#CC1(CNC(=O)c2ncc(NC(=O)c3cc(F)c(-c4ccc(F)cc4N)cc3Cl)cc2Cl)CC1` [Example A466, 5-(2′-amino-5-chloro-2,4′-difluoro-[1,1′-biphenyl]-4-carboxamido)-3-chloro-N-((1-cyanocyclopropyl)methyl)picolinamide] showed a concentration for half-maximal inhibition (IC50) of 10 to 100 nM. As to `Nc1cc(F)ccc1-c1cc(Cl)c(C(=O)Nc2cnc(C(=O)NCC(F)(F)C(F)(F)F)c(Cl)c2)cc1F` [Example A467, 5-(2′-amino-5-chloro-2,4′-difluoro-[1,1′-biphenyl]-4-carboxamido)-3-chloro-N-(2,2,3,3,3-pentafluoropropyl) picolinamide], the concentration for half-maximal inhibition (IC50) lay in the range of 100 to 500 nM. The same measure for `Nc1cc(F)ccc1-c1cc(Cl)c(C(=O)Nc2cnc(C(=O)NCC3(C(F)(F)F)CC3)c(Cl)c2)cc1F` [Example A468, 5-(2′-amino-5-chloro-2,4′-difluoro-[1,1′-biphenyl]-4-carboxamido)-3-chloro-N-((1-(trifluoromethyl)cyclopropyl)methyl) picolinamide]: 100 to 500 nM; for `CS(=O)(=O)CCNC(=O)c1ncc(NC(=O)c2cc(F)c(-c3ccc(F)cc3N)cc2Cl)cc1Cl` [Example A469, 5-(2′-amino-5-chloro-2,4′-difluoro-[1,1′-biphenyl]-4-carboxamido)-3-chloro-N-(2-(methylsulfonyl)ethyl) picolinamide]: 10 to 100 nM; for `C#Cc1cncc(N)c1-c1cc(Cl)c(C(=O)Nc2cnc(C(=O)NCC(F)F)c(Cl)c2)cc1F` [Example A471, 5-(4-(3-amino-5-ethynylpyridin-4-yl)-2-chloro-5-fluorobenzamido)-3-chloro-N-(2,2-difluoroethyl)picolinamide]: at most 10 nM. The same measure for `C#Cc1cncc(N)c1-c1cc(Cl)c(C(=O)Nc2cnc(C(=O)NCCF)c(Cl)c2)cc1F` [Example A472, 5-(4-(3-amino-5-ethynylpyridin-4-yl)-2-chloro-5-fluorobenzamido)-3-chloro-N-(2-fluoroethyl)picolinamide]: at most 10 nM. With `Nc1cncc(C2CC2)c1-c1cc(Cl)c(C(=O)Nc2cnc(-n3nccn3)c(C(F)(F)F)c2)cc1F` [Example A475, N-(6-(2H-1,2,3-triazol-2-yl)-5-(trifluoromethyl)pyridin-3-yl)-4-(3-amino-5-cyclopropylpyridin-4-yl)-2-chloro-5-fluorobenzamide], the concentration for half-maximal inhibition (IC50) is at most 10 nM. The same measure for `C#Cc1cncc(N)c1-c1cc(Cl)c(C(=O)Nc2cnc(C(=O)NCC(C)(C)C)c(Cl)c2)cc1F` [Example A478, 5-(4-(3-amino-5-ethynylpyridin-4-yl)-2-chloro-5-fluorobenzamido)-3-chloro-N-neopentylpicolinamide]: at most 10 nM; for `C#Cc1cncc(N)c1-c1cc(Cl)c(C(=O)Nc2cnc(C(=O)NCC)c(Cl)c2)cc1F` [Example A479, 5-(4-(3-amino-5-ethynylpyridin-4-yl)-2-chloro-5-fluorobenzamido)-3-chloro-N-ethylpicolinamide]: at most 10 nM. The figure for `C#Cc1cnc(F)c(N)c1-c1cc(Cl)c(C(=O)Nc2cnc(-n3nccn3)c(Cl)c2)cc1F` [Example A485, 4-(3-amino-5-ethynyl-2-fluoropyridin-4-yl)-2-chloro-N-(5-chloro-6-(2H-1,2,3-triazol-2-yl)pyridin-3-yl)-5-fluorobenzamide] is at most 10 nM; for `C#Cc1c(F)ncc(N)c1-c1cc(Cl)c(C(=O)Nc2cnc(-n3nccn3)c(Cl)c2)cc1F` [Example A486, 4-(5-amino-3-ethynyl-2-fluoropyridin-4-yl)-2-chloro-N-(5-chloro-6-(2H-1,2,3-triazol-2-yl)pyridin-3-yl)-5-fluorobenzamide] it is at most 10 nM; for `C=C(C)c1cncc(N)c1-c1cc(Cl)c(C(=O)Nc2cnc(-n3nccn3)c(Cl)c2)cc1F` [Example A504, 4-(3-amino-5-(prop-1-en-2-yl)pyridin-4-yl)-2-chloro-N-(5-chloro-6-(2H-1,2,3-triazol-2-yl)pyridin-3-yl)-5-fluorobenzamide] it is at most 10 nM. The figure for `C=Cc1cncc(N)c1-c1cc(Cl)c(C(=O)Nc2cnc(-n3nccn3)c(Cl)c2)cc1F` [Example A507, 4-(3-amino-5-vinylpyridin-4-yl)-2-chloro-N-(5-chloro-6-(2H-1,2,3-triazol-2-yl)pyridin-3-yl)-5-fluorobenzamide] is at most 10 nM; for `Nc1cncc(Br)c1-c1cc(Cl)c(C(=O)Nc2cnc(-n3nccn3)c(C(F)(F)F)c2)cc1F` [Example A517, N-(6-(2H-1,2,3-triazol-2-yl)-5-(trifluoromethyl)pyridin-3-yl)-4-(3-amino-5-bromopyridin-4-yl)-2-chloro-5-fluorobenzamide] it is at most 10 nM; for `C#Cc1cncc(N)c1-c1cc(Cl)c(C(=O)Nc2ccnc(C(F)(F)F)c2)cc1F` [Example A518, 4-(3-amino-5-ethynylpyridin-4-yl)-2-chloro-5-fluoro-N-(2-(trifluoromethyl)pyridin-4-yl)benzamide] it is at most 10 nM.
